# Assay results published in PMC10817170, “Effect of an NHE3 inhibitor in combination with an NPT2b inhibitor on gastrointestinal phosphate absorption in Rodent models” (PLOS ONE, 2024).
# Values joined by “and” are separate entries in the source; they are usually repeats but may differ in a detail not shown here. Identical values can stand only once.
# Legend:
# Format in all cases: in vivo
# [1] = tested on: acute phosphate uptake into plasma; assay: Acute radiolabeled phosphate uptake into plasma in rats
# Method: A dosing solution for a 10 mg/kg dose of LY3304000 using a 10 mL/kg dosing volume was made in 1% HEC vehicle. The subsequent dosing solutions for 3, 1, 0.3, 0.1, 0.03, 0.01, 0.003, and 0.001 mg/kg were prepared by serial dilutions with HEC. A Radiolabeled Phosphate Dosing Solution was made in a 16.25 mM Na2HPO4, 0.9% saline, pH 7.4, solution with the addition of about 2.5 μCi/mL radioactive phosphate (H3^33PO4, PerkinElmer) and filtered before dosing. Following 12-hour fasting with access to water, male SD rats were orally dosed at 10 mL/kg with either vehicle or varying doses of LY3304000. Fifteen minutes later, 2 mL of the Radiolabeled Phosphate Dosing Solution was dosed by oral gavage. This dose of phosphate was chosen because it approximates the rat equivalent to the amount of bioavailable phosphate in a human meal, 4 mg/kg phosphorus, or 320 mg phosphorus for an 80 kg person on a phosphate restricted diet. Fifteen minutes later, blood was collected by cardiac stick, and plasma was prepared. Radioactivity (dpm) in 50 μL plasma was measured by scintillation counting. To determine the total radioactivity dosed to each rat, the radioactivity in two 10-μL samples of the Radiolabeled Phosphate Dosing Solution was measured by scintillation counting. To calculate the total radioactivity recovered in plasma, it was assumed that total blood volume constitutes about 60% of the body weight and plasma constitutes about 55% of the total blood. The mole amount of phosphate uptake was calculated as the percentage of administered radiolabeled phosphate recovered in the plasma of vehicle or LY3304000 treated rats multiplied by total phosphate amount in the radiolabeled phosphate dosing solution. ED50 values were then determined with a 4-parameter logistic curve fitting model using GraphPad Prism. A 15-minute time point, post phosphate dosing, was chosen for collecting blood in the acute phosphate uptake studies in rats and mice (see below) to capture the initial rate of phosphate absorption. We wanted to avoid measurements at longer time points when plasma radiolabeled phosphate appears to be at a steady state.
# [2] = tested on: acute phosphate uptake into plasma; assay: Acute phosphate uptake in rats, LY3304000 with fixed 1.2 mg/kg LY3358966
# Method: NHE3 inhibitor LY3304000 and NPT2b inhibitor LY3358966 SDD were used in combination to assess their effect on phosphate absorption in rats. To make the LY3358966 dosing solution, an appropriate amount of LY3358966 SDD was weighed for a 1.2 mg/kg API dosing solution with 10 mL/kg dosing volume and dissolved in water. To make the LY3304000 dosing solution, an appropriate amount of LY3304000 was weighed for a 10 mg/kg dose with 10 mL/kg dosing volume and dissolved in 1% HEC vehicle. The subsequent dosing solutions for 3, 1, 0.3, 0.1, 0.03, 0.01, 0.003, and 0.001 mg/kg LY3304000 were prepared by serial dilutions with 1% HEC. Following 12-hour fasting, male SD rats were orally dosed at 10 mL/kg with 1% HEC vehicle, 1.2 mg/kg LY3358966 or increasing doses of LY3304000 with a fixed, 1.2 mg/kg dose of LY3358966. In the vehicle group, the animals were dosed first with 1% HEC immediately followed by water. In the LY3358966 alone group, the animals were first dosed with 1% HEC immediately followed by LY3358966. In the combination groups, the animals were dosed first with LY3304000 immediately followed by LY3358966. Fifteen minutes later, 2 mL Radiolabeled Phosphate Dosing Solution was orally dosed. Fifteen minutes later, blood was collected by cardiac stick, and plasma was prepared. Radioactivity (dpm) in 50-μL plasma was measured by scintillation counting. To measure the total radioactivity dosed to each rat, the radioactivity in two 10-μL samples of the Radiolabeled Phosphate Dosing Solutions was measured by scintillation counting. The mole amount of phosphate uptake was calculated as described above to determine acute phosphate uptake.
# [3] = tested on: intestinal phosphate absorption; assay: Phosphate absorption in rats: 33P in plasma (15 min) and recovered in gastrointestinal tract (4 h), single agents and combination; details: 0.4 mg/kg LY3304000, 10 mg/kg LY3358966 or both
# Method: We also evaluated the effect of LY3304000 and LY3358966 in combination on phosphate absorption in rats by measuring radioactive phosphate recovered in either plasma or the gastrointestinal (GI) tract. In this combination study, two vehicles were used. One is 1% HEC vehicle for making LY3304000 dosing solution, another is 0.46% PVP-VA vehicle contained in LY3358966 SDD. To make the LY3358966 dosing solution, an appropriate amount of LY3358966-SDD was weighed for a 10 mg/kg API dosing solution with 5 mL/kg dosing volume and dissolved in water. To make the LY3304000 dosing solution, an appropriate amount of LY3304000 was weighed for a 0.4 mg/kg dosing solution with 5 mL/kg dosing volume and dissolved in 1% HEC. The Radiolabeled Phosphate Dosing Solutions was made as described above. Following 4-hour fasting with access to water, male SD rats were orally dosed at 10 mL/kg with either two vehicles, an LY3358966 dosing solution and 1% HEC vehicle, an LY3304000 dosing solution and 0.46% PVP-VA vehicle, or an LY3304000 and LY3358966 dosing solutions, combined 1:1 by volume. Fifteen minutes later, Radiolabeled Phosphate Dosing Solution was orally dosed in a 2 mL volume. Fifteen minutes after the radiolabeled phosphate dose, blood was collected by retro orbital bleeding, and plasma was prepared. Radioactivity (dpm) in 20-μL plasma was measured by scintillation counting. The mole amount of phosphate uptake in the plasma was calculated as described above. Four hours post radioactive phosphate dose, the animals were sacrificed by asphyxiation with CO2 followed by cervical dislocation and then the stomach, small intestine, large intestine, and feces were collected and weighed. The tissues and feces were digested in 20 mL or 10 mL of 1 N NaOH, respectively, overnight at 37°C. A 100 μL sample of the homogenates were dispensed into scintillation vials and mixed with 10 mL of Optiphase Supermax scintillation fluid (PerkinElmer), and radioactivity (dpm) was measured by scintillation counting. Very little radioactivity was detected in the feces at 4 hours post radioactive phosphate dose. The percentage of radiolabeled phosphate recovered in the gastrointestinal tissue was defined as radioactivity (dpm) recovered in each fraction compared to the amount of radioactivity (dpm) administered. The mole amount of phosphate uptake into plasma in vehicle and LY3358966 and LY3304000 alone groups were compared to the LY3358966 and LY3304000 combination group using One-way ANOVA with Dunnett’s multiple comparisons. Percent recovery of ^33P phosphate in the rat gastrointestinal tract was analyzed by two-way analysis of variance (ANOVA) in JMP 12.1 to test for additivity of the effects of LY3304000 and LY3358966 on inhibiting phosphate absorption.
smiles,measurement,setting,value
"CN1Cc2c(Cl)cc(Cl)cc2[C@H](c2cccc(S(=O)(=O)NCCOCCOCCN/C(=N\C(N)=O)NCCCCN/C(=N/C(N)=O)NCCOCCOCCNS(=O)(=O)c3cccc([C@@H]4CN(C)Cc5c(Cl)cc(Cl)cc54)c3)c2)C1.Cl.Cl [LY3304000, (Z)-[[4-[[(Z)-N’-carbamoyl-N-[2-[2-[2-[[3-[(4S)-6,8-dichloro-2-methyl-3,4-dihydro-1H-isoquinolin-4-yl]phenyl]sulfonylamino]ethoxy]ethoxy]ethyl]carbamimidoyl]amino]butylamino]-[2-[2-[2-[[3-[(4S)-6,8-dichloro-2-methyl-3,4-dihydro-1H-isoquinolin-4-yl]phenyl]sulfonylamino]ethoxy]ethoxy]ethylamino]methylene]urea dihydrochloride]",maximal inhibition of phosphate uptake,[1],37%
same,ED50,"[1]; Rattus norvegicus, po, 0.25 h, oral, plasma 15 min post 33P phosphate, read-out: ED50 (decrease of phosphate uptake)",0.04 mg/kg
same,"Emax, Pi uptake",[1]; curve fit,266.8 nmol
same,ED50 (decrease of phosphate uptake),"[1]; oral, plasma 15 min post 33P phosphate",0.041 mg/kg
same,"radiolabeled phosphate in plasma, maximal determined decrease",[1]; vehicle 416 nmoles,264 nmol
same,"acute phosphate uptake, % of vehicle control",[2]; highest dose of LY3304000 plus 1.2 mg/kg LY3358966,30%
same,acute phosphate uptake into plasma,"[2]; highest dose of LY3304000 tested plus 1.2 mg/kg LY3358966, vehicle 710 nmoles",212 nmol
same,phosphate uptake into plasma,"[3]; 15 min post 33P phosphate, vehicle 166, mean ± SEM, n=8",118 nmol and 118 ± 8 nmol
same,"percentage of radiolabeled phosphate recovered, Feces",[3]; 4 h,<0.1%
same,"percentage of radiolabeled phosphate recovered, Large Intestine",[3]; 4 h,18.16 +/- 2.58%
same,"percentage of radiolabeled phosphate recovered, Small Intestine",[3]; 4 h,8.64 +/- 0.32%
same,"percentage of radiolabeled phosphate recovered, Stomach",[3]; 4 h,3.9 +/- 0.49%
same,"percentage of 33P recovered in GI tract, total","[3]; 4 h post 33P phosphate, stomach, small intestine, large intestine and feces, vehicle 25%",31 ± 7% and 31% and 30.7 +/- 2.43%
same,inhibition at 0.4 mg/kg,"[3]; Rattus norvegicus, 0.25 h, 15 min post 33P phosphate, versus vehicle, read-out: inhibition of phosphate uptake into plasma",29%
